# According to patent US20230242520A1, “MALONITRILE DERIVATIVES” (Hoffmann-La Roche Inc., priority 2020, published 2023):
# Target: T1, human cGAS (residues 161-522) (Homo sapiens, UniProt Q8N884)
# T1 construct: Recombinantly expressed purified human cGAS (residues 161-522) was used at 25 nM; made in house
# Test: cGAS Activity Assay - Malachite Green (coupled enzymatic assay, phosphate detection)
# Format: biochemical
# Details: recombinant human cGAS 25 nM, 80 μM ATP, 80 μM GTP, 100 nM ISD, 4 hour at RT
# Protocol: cGAS Activity Assay—Malachite Green
# Compounds were tested for cGAS inhibition in a coupled enzymatic assay based on Phosphate detection by Malachite Green. Final assay conditions were 20 mM TRIS pH 7.5 (Applichem), 5 mM MgCl2 (Sigma) and 0.01% BSA (Sigma) supplemented with 80 μM ATP (Sigma), 80 μM GTP (Sigma) and 100 nM Interferon Stimulating DNA (ISD) (Microsynth). Recombinantly expressed purified human cGAS (residues 161-522) was used at 25 nM.
# All compounds were prepared as 10 mM stock solutions in DMSO and a 16 pt dilution series in DMSO with a dilution factor of 2.5 was prepared. 1 μL of DMSO dilution series was transferred to 32.3 μL reaction buffer, mixed by pipetting up/down, spun for 1 minute at 3000 rpm and was visually inspected for precipitation. 5 μL of 3-fold enzyme stock solution were transferred to an empty 384-well Black/Clear Flat Bottom Polystyrene NBS (Corning) rows 3-24. Rows 1-2 were filled with assay buffer. Plates were spun 10 seconds at 1000 rpm (164×g). 5 μL of compound intermediate dilution was added and mixed by pipetting up/down to rows 3-24. Rows 1-2 were filled with 3.1% DMSO assay buffer. Plates were spun 10 seconds at 1000 rpm (164×g). 5 μL 3-fold Nucleotide/DNA mix was added to all wells to start the reaction. Plates were spun 10 seconds at 1000 rpm (164×g) and incubated for 4 hour at room temperature (RT) in the dark. 5 μL 4 U/mL PPase (Sigma) were added to all wells. Plates spun 10 seconds at 1000 rpm (164×g). 10 μL BioMol green Solution (Enzo Life Sciences) was added to all wells. Plates spun 10 seconds at 1000 rpm (164×g) and incubated 30 minutes at RT in the dark. Absorbance data was collected 620 nm on an EnVision Multilable Reader (Perkin Elmer) and the following measurement settings were used: excitation filter photometric was 620 nm; excitation from the top; measurement height was 1 mm; number of flashes was 30; number of flashes integrated was 1.
# All plates are checked for abnormalities and outliers in the Blank Control (no protein, row 1) and the Neutral Control (no compound, row 2) are excluded using the 3*SD rule. Data was normalized to 0 and 100% by Blank and Neutral Control and each curve was fitted and judged using the 4 parameter logistic equation to determine the IC50 for cGAS inhibition.
# Table 2 provides IC50 values (μM ) for cGAS inhibition obtained for particular examples of the present invention as measured by the above-described assay.
# T1 sequence (Q8N884 161-522): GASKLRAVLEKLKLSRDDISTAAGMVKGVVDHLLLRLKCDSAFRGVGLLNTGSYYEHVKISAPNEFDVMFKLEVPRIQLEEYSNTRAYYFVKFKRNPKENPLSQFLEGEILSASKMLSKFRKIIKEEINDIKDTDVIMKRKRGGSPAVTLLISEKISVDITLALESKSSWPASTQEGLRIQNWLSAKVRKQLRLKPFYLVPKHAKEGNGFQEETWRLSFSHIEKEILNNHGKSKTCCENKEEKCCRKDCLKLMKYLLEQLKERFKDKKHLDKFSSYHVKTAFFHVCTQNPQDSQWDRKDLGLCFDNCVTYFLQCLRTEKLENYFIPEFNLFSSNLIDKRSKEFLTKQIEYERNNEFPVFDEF
row,IC50,Structure (SMILES)
1,1.13 µM,"COC(=O)c1ccc(NC(=O)/C(C#N)=C(\O)c2conc2C)cc1 [Example 12, methyl (Z)-4-(2-cyano-3-hydroxy-3-(3-methylisoxazol-4-yl)acrylamido) benzoate]"
2,1.57 µM,"Cc1oncc1/C(O)=C(\C#N)C(=O)Nc1cccnc1 [Example 2, (Z)-2-cyano-3-hydroxy-3-(5-methylisoxazol-4-yl)-N-(3-pyridyl)prop-2-]"
3,0.84 µM,"COc1cnc(NC(=O)/C(C#N)=C(\O)c2cnoc2C)cn1 [Example 19, (Z)-2-cyano-3-hydroxy-N-(5-methoxypyrazin-2-yl)-3-(5-methylisoxazol-4-yl)prop-2-enamide]"
4,1.27 µM,"COC(=O)c1sccc1NC(=O)/C(C#N)=C(\O)c1cnoc1C [Example 9, methyl (Z)-3-(2-cyano-3-hydroxy-3-(5-methylisoxazol-4-yl)acrylamido) thiophene-2-carboxylate]"
5,8.48 µM,"Cc1cnoc1/C(O)=C(\C#N)C(=O)Nc1ccc(C(F)(F)F)cc1 [Example 14, (Z)-2-cyano-3-hydroxy-3-(4-methylisoxazol-5-yl)-N-(4-(trifluoromethyl)phenyl) acrylamide]"
6,0.22 µM,"Cc1oncc1/C(O)=C(\C#N)C(=O)Nc1ccc2c(c1)CCC2=O [Example 3, (Z)-2-cyano-3-hydroxy-3-(5-methylisoxazol-4-yl)-N-(1-oxoindan-5-yl)prop-2-enamide]"
7,1.85 µM,"Cn1cncc1/C(O)=C(\C#N)C(=O)Nc1ccc(C(F)(F)F)cc1 [Example 1, (Z)-2-Cyano-3-hydroxy-3-(1-methyl-1H-imidazol-5-yl)-N-(4-(trifluoromethyl)phenyl)acrylamide]"
8,1.11 µM,"Cc1oncc1/C(O)=C(\C#N)C(=O)Nc1ccc2ccccc2c1 [Example 17, (Z)-2-cyano-3-hydroxy-3-(5-methylisoxazol-4-yl)-N-(naphthalen-2-yl)acrylamide]"
9,0.62 µM,"Cc1oncc1/C(O)=C(\C#N)C(=O)Nc1ccncc1 [Example 18, (Z)-2-cyano-3-hydroxy-3-(5-methylisoxazol-4-yl)-N-(4-pyridyl)prop-2-enamide]"
10,7.19 µM,"N#C/C(C(=O)Nc1ccc(C(F)(F)F)cc1)=C(/O)c1cnco1 [Example 13, (Z)-2-cyano-3-hydroxy-3-(oxazol-5-yl)-N-(4-(trifluoromethyl)phenyl) acrylamide]"
11,0.17 µM,"Cc1oncc1/C(O)=C(\C#N)C(=O)Nc1ccn(C)c(=O)c1 [Example 5, (Z)-2-cyano-3-hydroxy-3-(5-methylisoxazol-4-yl)-N-(1-methyl-2-oxo-4-pyridyl)prop-2-enamide]"
12,3.99 µM,"Cc1nocc1/C(O)=C(\C#N)C(=O)Nc1ccc(C(F)(F)F)cc1 [Example 11, (Z)-2-cyano-3-hydroxy-3-(3-methylisoxazol-4-yl)-N-(4-(trifluoromethyl)phenyl) acrylamide]"
13,1.34 µM,"COc1ccc(NC(=O)/C(C#N)=C(\O)c2cnoc2C)cn1 [Example 8, (Z)-2-cyano-3-hydroxy-N-(6-methoxy-3-pyridyl)-3-(5-methylisoxazol-4-yl)prop-2-enamide]"
14,4.76 µM,"Cc1sncc1/C(O)=C(\C#N)C(=O)Nc1ccc(C(F)(F)F)cc1 [Example 15, (Z)-2-cyano-3-hydroxy-3-(5-methylisothiazol-4-yl)-N-(4-(trifluoromethyl)phenyl) acrylamide]"
15,0.82 µM,"CCOC(=O)c1c(C)csc1NC(=O)/C(C#N)=C(\O)c1cnoc1C [Example 10, ethyl (Z)-2-(2-cyano-3-hydroxy-3-(5-methylisoxazol-4-yl)acrylamido)-4-methylthiophene-3-carboxylate]"
16,6.31 µM,"Cn1nncc1/C(O)=C(\C#N)C(=O)Nc1ccc(C(F)(F)F)cc1 [Example 4, (Z)-2-cyano-3-hydroxy-3-(1-methyl-1H-1,2,3-triazol-5-yl)-N-(4-(trifluoromethyl)phenyl) acrylamide]"
17,1.02 µM,"COc1ccc(NC(=O)/C(C#N)=C(\O)c2cnoc2C)nn1 [Example 7, (Z)-2-cyano-3-hydroxy-N-(6-methoxypyridazin-3-yl)-3-(5-methylisoxazol-4-yl)prop-2-enamide]"
18,0.18 µM,"Cc1oncc1/C(O)=C(\C#N)C(=O)Nc1cc[nH]c(=O)c1 [Example 6, (Z)-2-cyano-3-hydroxy-3-(5-methylisoxazol-4-yl)-N-(2-oxo-1H-pyridin-4-yl)prop-2-enamide]"
19,0.97 µM,"Cc1oncc1/C(O)=C(\C#N)C(=O)Nc1nc2c(c(-c3ccccc3)n1)CCCC2 [Example 22, (Z)-2-cyano-3-hydroxy-3-(5-methylisoxazol-4-yl)-N-(4-phenyl-5,6,7,8-tetrahydroquinazolin-2-yl)acrylamide]"
20,1.79 µM,"Cc1oncc1/C(O)=C(\C#N)C(=O)Nc1cccc2ccccc12 [Example 16, (Z)-2-cyano-3-hydroxy-3-(5-methylisoxazol-4-yl)-N-(naphthalen-1-yl)acrylamide]"
21,5.21 µM,"COc1nc(NC(=O)/C(C#N)=C(\O)c2cnoc2C)nc2c1CCCC2 [Example 23, (Z)-2-cyano-3-hydroxy-N-(4-methoxy-5,6,7,8-tetrahydroquinazolin-2-yl)-3-(5-methylisoxazol-4-yl)acrylamide]"
22,1.06 µM,"COc1cccc(-c2cc3cc(NC(=O)/C(C#N)=C(\O)c4cnoc4C)ccc3c(=O)[nH]2)c1 [Example 21, (Z)-2-cyano-3-hydroxy-N-(3-(3-methoxyphenyl)-1-oxo-1,2-dihydroisoquinolin-6-yl)-3-(5-methylisoxazol-4-yl)acrylamide]"
23,0.5 µM,"Cc1cccc(C)c1NC(=O)c1ccc(NC(=O)/C(C#N)=C(\O)c2cnoc2C)cn1 [Example 20, (Z)-5-(2-cyano-3-hydroxy-3-(5-methylisoxazol-4-yl)acrylamido)-N-(2,6-dimethylphenyl) picolinamide]"
24,0.45 µM,"Cc1nc(NC(=O)/C(C#N)=C(\O)c2cnoc2C)nc2c1CS(=O)(=O)CC2 [Example 24, (Z)-2-cyano-3-hydroxy-N-(4-methyl-6,6-dioxido-7,8-dihydro-5H-thiopyrano[4,3-d]pyrimidin-2-yl)-3-(5-methylisoxazol-4-yl)acrylamide]"
